Test results as given in PMC11574045, “A cofactor-induced repressive type of transcription factor condensation can be induced by synthetic peptides to suppress tumorigenesis” (The EMBO Journal, 2024).
Ends that are not written are not given here.

Key:
HGC-27 cells = assay: Colony formation; format: cell-based, human; conditions: colony formation: GLUP 2 μg/ml (1 μM) every 2 days for 2 weeks
Protocol: (A) Cell viability levels of HGC-27 cells treated with indicated concentrations (0, 5, 10, 20, 40 μg/ml) of GLUP for 48 h (three biological replicates, n = 3). Data shown as means ± SD represent the representative results from two independent experiments. (B) Colony formation of HGC-27 cells treated with GLUP every 2 days for a 2-week duration (three biological replicates, n = 3). GLUP, 2 μg/ml (1 μM). (C) Cell viability levels of the indicated cells (from 10 different lines) treated with GLUP. […] IC50 values for the treatments of these cells with GLUP (lower). […] The box plots showing the minima, maxima, center, bounds of box and whiskers and percentiles (upper quartile, median and lower quartile). Data shown as means ± SD represent the representative results from two independent experiments. Significance was tested using the unpaired t test, ***p < 0.001. (D) Cell viability of TEAD4-overexpressing AGS cells treated with GLUP for 48 h (three biological replicates, n = 3). Data shown as means ± SD represent the representative results from two independent experiments. (E) Cell viability levels of four lines of patient-derived cells (PDCs) treated with GLUP. […] The quantification graph represents the data collected from 14 cells (n = 14). […] Tumor areas were measured (right, n = 8/group) and indicated in red circles. […]

Pharmacokinetics assay = format: in vivo, mouse; conditions: 10 mg/kg
Protocol: Blood samples were obtained at 0, 0.17, 0.33, 0.5, 0.67, 0.83, 1, 2, 4, 6, 8, 10, 12, and 24 h after intraperitoneally injected administration of FAM-GLUP. These blood samples were then allowed to coagulate at room temperature for 4 h, and then were subjected to centrifugation at 3000 × g at 4 °C for 10 min in order to separate the plasma. The plasma samples were analyzed using an Ultra Performance Liquid Chromatography system (UPLC, Waters, Milford, MA). Pharmacokinetic parameters were calculated using Phoenix^TM WinNonlin® software (version 6.1.0.173; Pharsight Corp., Mountain View, CA).

With “RRVCVHFHFSLSLR-NH2 (C-terminus assumed) [glup]” as the substance, how does the “Viability and colony formation” value (HGC-27 cells) read?
Its value is “obvious reduction in both the viability and colony formation”.

And the half-life (Pharmacokinetics assay; mouse peripheral blood/plasma, FAM-GLUP intraperitoneal, sampling 0–24 h, UPLC, WinNonlin)?
The half-life was “over 4 h”.

What about the “plasma levels of GLUP, max” value (Pharmacokinetics assay; mouse, as read by Referee #1 from Supp. Fig. 6K of the submitted version) of the same substance?
The value was “around 0.15 µg/ml”.
